In US6515020B1, “Combination of carnitines and resveratrol for prevention or treatment of cerebral and ageing disorders” (Sigma-Tau HealthScience S.p.A., priority 1998, dated 2003):

Experiments:
[1] = test system: pheochromocytoma cells (PC-12); assay: Survival of pheochromocytoma cells (PC-12) exposed to H2O2; type: cell-based; conditions: for survival rate: 0.1 mM H2O2 30 minutes
Experimental: Tests of survival of pheochromocytoma cells (PC-12) exposed to H2O2 and treated with L-carnitine or resveratrol or with the two products in combination
A culture of pheochromocytoma cells (PC-12) containing 3×10^5 N-cells/ml was exposed to 0.1 mM concentrations of H2O2 for 30 minutes. While the survival of the cells treated with H2O2 alone was approximately 45% after 24 hours, the survival of the cells treated with L-carnitine or with resveratrol was substantially greater, with survival rates of 55, 60 and 62%, respectively, for cells treated with L-carnitine, acetyl L-carnitine and propionyl L-carnitine at concentrations of 10^−8 M, and a survival rate of 69% for cells treated with resveratrol at the concentration of 10^−4 M.

[2] = test system: spontaneous motility of endothelin (ET-1)-treated mice; assay: Spontaneous motility of mice reduced by intracerebral endothelin (ET-1); type: in vivo
Text: One of the effects of a vasoactive peptide and neuromodulator such as endothelin is the influence it exerts on animal behaviour in reducing the animals' motility and vestibular reactions.
In these tests, we were able to observe that the typical action of endothelin (ET-1) injected intracerebrally in mice at the dose of 1 pmol/mouse, which is to substantially reduce the animals' spontaneous motility, can be inhibited to a very significant extent by prior administration of carnitines and resveratrol, and, particularly, that the combination of these two types of substances is capable of acting synergistically, restoring the motility reduced by endothelin administration almost to normal values.
The values were observed, keeping 10 mice at a time placed in a container with a photocell and an automatic movement counter; the count was done by observing the mice for periods of 5 minutes 15 minutes after the endothelin (ET-1) injection.

[3] = test system: sensory neuronal lesions induced by cisplatin; type: in vivo, mouse; conditions: cisplatin-treated mice; 10 animals per group
Experimental: In these tests, cisplatin was used as a neuronal toxic factor, capable, particularly, of producing lesions in the sensory neurones and thus of impairing proprioceptive perception. The tests evaluated the ability of carnitines, resveratrol and combinations of these substances to restore peripheral sensory perception in the mouse impaired by injection of cisplatin. This ability was assessed by evaluating the reaction to thermal pain induced by a heated water solution in which the animals' tails were dipped according to the tail-flick test, or using the rotating bar test (Apfel S.C., Lipton R.B., Ann. Neurol., 29, 87-90, 1991).
Cisplatin was administered subcutaneously at the dose of 10 mg/kg for eight consecutive days. Over the same period the mice received injections of 100 mg/kg of carnitines and 2.5 mg/kg of resveratrol or combinations of these products.
The values observed, in fact, were 13.5 seconds in the animals treated with acetyl L-carnitine plus resveratrol and 14.4 seconds in those treated with propionyl L-carnitine plus resveratrol.

[4] = carnitines 300 mg/kg intra-peritoneally for three days preceding and half an hour before ET-1 injection

## OO [H2O2]
[1]; 0.1 mM H2O2 alone for 30 minutes, after 24 hours
  survival of the cells: approximately 45%

## C[N+](C)(C)C[C@H](O)CC(=O)[O-] [L-carnitine]
[1]; carnitine at 10^−8 M
  survival rate: 55%
[2]; [4]
  motility reduction percentage: 69.6%

## CC(=O)O[C@H](CC(=O)[O-])C[N+](C)(C)C [acetyl L-carnitine]
[1]; carnitine at 10^−8 M
  survival rate: 60%
[2]; [4]
  motility reduction percentage: 65.5%

## CC[C@H](C)[C@H](NC(=O)[C@H](CC(=O)O)NC(=O)[C@H](CC(C)C)NC(=O)[C@H](Cc1c[nH]cn1)NC(=O)[C@@H]1CSSC[C@H](N)C(=O)N[C@@H](CO)C(=O)N[C@H]2CSSC[C@H](NC(=O)[C@H](CCC(=O)O)NC(=O)[C@H](CCCCN)NC(=O)[C@H](CC(=O)O)NC(=O)[C@H](CCSC)NC(=O)[C@H](CC(C)C)NC(=O)[C@H](CO)NC(=O)[C@H](CO)NC2=O)C(=O)N[C@@H](C(C)C)C(=O)N[C@@H](Cc2ccc(O)cc2)C(=O)N[C@@H](Cc2ccccc2)C(=O)N1)C(=O)N[C@H](C(=O)N[C@@H](Cc1c[nH]c2ccccc12)C(=O)O)[C@@H](C)CC [endothelin]
[2]; endothelin alone, 1 pmol/mouse intracerebrally, count for 5 minutes, 15 minutes after injection
  motility reduction percentage: 85.5%

## CCC(=O)O[C@H](CC(=O)[O-])C[N+](C)(C)C [propionyl L-carnitine]
[1]; carnitine at 10^−8 M
  survival rate: 62%
[2]; [4]
  motility reduction percentage: 60.3%

## Oc1ccc(/C=C/c2cc(O)cc(O)c2)cc1 [resveratrol, trans-3,4′,5-trihydroxy-stilbene]
[1]; resveratrol at 10^−4 M
  survival rate: 69%
[3]
  increase in equilibrium time: significant increase
[2]; alone, resveratrol 2.5 mg/kg, ET-1 treated mice
  motility reduction percentage: 60.4%
